Test results reported in publication PMC10564737, “Structure-based design of a phosphotyrosine-masked covalent ligand targeting the E3 ligase SOCS2” (Nature Communications, 2023).
“And” between values parts separate entries of the source, which are not always exact repeats. Equal entries are not always repeated. Where two headings read alike, the source gives them in different places.

How the values were obtained:
[1] = biological target: T1, HiBiT-SOCS2 fusion in HeLa cells (Homo sapiens, UniProt O14508); assay: Split-NanoLuc CETSA, permeabilised cell format; format: cell-based
T1 construct: encoding SOCS2 (32–198) in pBiT3.1-N expression vector; expressed in transfected cells; host or cells: HeLa
Method: One of the challenges with small-molecule binders displaying on-target activity with recombinant proteins, is to translate their utility to a cellular context. […] One of the advantages of CETSA is that target engagement can be monitored without the need for the development of a cell-permeable tracer molecule.
To test the cellular activity of MN551, we treated HeLa cells with 50 μM MN551 for 20 h and performed CETSA in a live-cell mode. We observed a small Tagg shift of 2 °C in live mode, which increased to 3–4 °C Tagg shift in the permeabilised format (Fig. 4d). We postulate that this observation could likely be a result of the low cellular permeability of MN551 owing to its negatively charged phosphate group.
N-terminal HiBiT-SOCS2 fusion was generated by encoding SOCS2 (32–198) in pBiT3.1-N expression vector (Promega). The transfection and target engagement assay were performed by modifying a NanoLuc target engagement protocol (Promega) with some small modifications. Briefly, HiBiT-SOCS2 fusion construct was transfected into HeLa cells using FuGENE HD (Promega) according to the manufacturer’s protocol. HiBiT-SOCS2 fusion construct was diluted into Transfection Carrier DNA (Promega) at a mass ratio of 1:100 or 1:10 for permeabilised and live-cell CETSA respectively. FuGENE HD was added at a ratio of 1:3 (μg DNA: μL FuGENE HD). 1 part (vol) of FuGENE HD complexes thus formed were combined with 20 parts (vol) of HeLa cells suspended at a density of 2 × 10^5 cells/mL, followed by incubation in a humidified, 37 °C + 5% CO2 incubator. After 20 h of incubation HeLa cells were detached and resuspended at a density of 2.5 × 10^5 cells/mL in Opti-MEM media without serum or phenol red but supplemented with protease inhibitor cocktail (Roche). […] Luminescence was recorded with GloMax Discover Microplate Reader (Promega). To generate apparent Tagg curves, the data is first converted to percent stabilized by relating the observed luminescence to the luminescence of the lowest temperature (40 °C) for that given sample. […]

SOCS4-EloBC (SBC4) = biological target: T2, SOCS4-EloBC (SBC4) (Homo sapiens, UniProt Q8WXH5); assay: Intact ESI-MS of recombinant protein, covalent modification; format: biochemical; details: SOCS4 + MN551 (1:1, 40 µM), 0 min
T2 construct: SOCS4 (amino acids 274-437); made in house; E. coli implied
Excerpt: (§1) Having established the specificity of MN551 for covalent modification of Cys111 of SOCS2, we turned our attention to the intra-SOCS family selectivity of MN551. We performed a multiple sequence alignment of the SH2 domains from all the SOCS proteins (Fig. 3a). The Cys111 targeted by MN551 for covalency is part of the EF loop in SOCS2. Beyond SOCS2, other family members SOCS4, SOCS5, SOCS7, and CISH also have a cysteine in the same loop (Fig. 3a), and given the expected conserved ligand binding mode, they could all be engaged by MN551. To verify our hypothesis, we incubated recombinant SOCS/EloBC complexes of SOCS4 (SBC4), SOCS6 (SBC6), and CISH with MN551 for 2 h and analyzed for covalent modification of the SOCS proteins by intact ESI-MS (Fig. 3b–d). These proteins were chosen as SOCS4 and SOCS6 are already structurally well characterized, and because SOCS4 Cys350, and CISH Cys144 are in a similar position as Cys111 in SOCS2, whereas SOCS6 is lacking cysteines in the EF loop[36]–[38]. […] Although SOCS6 lacks a cysteine in its EF loop, Cys471 from the BG loop is predicted to be in close proximity to the chloroacetamide functional group of MN551, as evident from the superposed SOCS2 and SOCS6 structures, potentially explaining the modification, albeit minimal (Fig. 3f). Structure-guided improvements upon this observed MN551-SOCS6 covalency could expedite future attempts in development of covalent binders for SOCS6. In the absence of a PDB structure for CISH, we overlayed SOCS2-SH2 domain with an AlphaFold model generated for the CISH SH2 domain with deletions in the N-terminus and the PEST sequence (66-258, Δ174-202, Fig. 3g). Amongst all the SOCSs, CISH has the highest sequence identity to SOCS2-SH2 and the presence of a conserved Cys144 in the EF loop together likely explain its complete covalent modification by MN551.
(§2) SBC2 protein (40 µM), SBC2 C111S, SBC4, SBC6, or CISH were incubated with an equimolar concentration of MN551 in 50 mM Tris, pH 8.0, 50 mM NaCl, 1 mM TCEP. At defined time points 20 µl samples were removed and the protein precipitated by the addition of 80 µl methanol. The precipitated protein was pelleted by centrifugation, washed with 500 µl methanol, and resuspended in an aqueous solution of 15% acetonitrile and 1% TFA. Samples were separated by HPLC on a C3 column using a 10–75% gradient of acetonitrile and analyzed using an Agilent 6130 quadrupole MS. Spectra were deconvoluted and integrated using Agilent LC/MSD ChemStation.

SOCS6-EloBC (SBC6) = biological target: T3, SOCS6-EloBC (SBC6) (Homo sapiens, UniProt O14544); assay: as above; format: biochemical; details: SOCS6 + MN551 (1:1, 40 µM)
T3 construct: SOCS6 (amino acids 353-535); His6-GST (N, cleaved yes); made in house; E. coli implied
Excerpt: as §1, §2

T3 sequence (Q15370 1-104): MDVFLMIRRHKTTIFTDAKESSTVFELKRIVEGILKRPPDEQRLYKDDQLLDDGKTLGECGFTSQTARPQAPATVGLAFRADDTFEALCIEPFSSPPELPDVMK
T3 sequence (O14544 353-535): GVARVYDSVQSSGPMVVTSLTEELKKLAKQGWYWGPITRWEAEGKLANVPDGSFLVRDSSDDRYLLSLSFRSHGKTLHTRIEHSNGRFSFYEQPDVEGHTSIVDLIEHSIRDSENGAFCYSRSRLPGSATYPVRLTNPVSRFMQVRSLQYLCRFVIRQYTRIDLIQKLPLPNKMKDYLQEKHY
T3 sequence (Q15369 17-112, further chain): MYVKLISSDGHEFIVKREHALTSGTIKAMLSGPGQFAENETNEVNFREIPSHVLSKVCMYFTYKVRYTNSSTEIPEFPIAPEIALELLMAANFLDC
T1 sequence (O14508 32-198): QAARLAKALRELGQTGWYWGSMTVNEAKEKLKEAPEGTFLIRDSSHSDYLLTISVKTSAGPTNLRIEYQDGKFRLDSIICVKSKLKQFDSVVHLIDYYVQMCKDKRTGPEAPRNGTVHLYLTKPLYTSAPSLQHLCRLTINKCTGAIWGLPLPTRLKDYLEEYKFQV
T1 sequence (Q15370 whole entry, further chain, the tested form may be a part): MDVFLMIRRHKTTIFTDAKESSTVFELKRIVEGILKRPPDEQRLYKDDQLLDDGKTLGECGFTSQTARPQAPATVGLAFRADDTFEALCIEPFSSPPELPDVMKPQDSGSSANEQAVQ
T1 sequence (Q15369 whole entry, further chain, the tested form may be a part): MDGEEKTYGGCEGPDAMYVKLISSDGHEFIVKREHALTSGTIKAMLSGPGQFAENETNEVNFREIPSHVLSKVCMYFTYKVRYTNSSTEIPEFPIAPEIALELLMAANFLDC
T2 sequence (Q8WXH5 274-437): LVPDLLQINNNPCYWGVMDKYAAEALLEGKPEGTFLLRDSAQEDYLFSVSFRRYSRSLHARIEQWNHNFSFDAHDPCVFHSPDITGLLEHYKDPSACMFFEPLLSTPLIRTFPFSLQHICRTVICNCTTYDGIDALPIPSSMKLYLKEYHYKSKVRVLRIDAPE
T2 sequence (Q15369 17-112, further chain): as the sequence (Q15369 17-112, further chain) above
T2 sequence (Q15370 1-104, further chain): as the sequence (Q15370 1-104) above

O=C(CCl)Nc1cccc(CNC(=O)[C@H](Cc2ccc(OP(=O)(O)O)cc2)NC(=O)Cc2ccc(F)cc2)c1 [MN551]
EC50 ([1]; MN551 CETSA dose response, Mean, read-out: EC50): 1010 nM | EC50 ([1]; MN551 CETSA dose response, single replicates, read-out: EC50, individual replicates n1-n2): 755 nM and 1260 nM | EC50 ([1]; permeabilised CETSA, 1 hr, mean ± SEM, n = 2, read-out: EC50 of Tagg shift): 1000 ± 250 nM | % modified (SOCS4-EloBC (SBC4)): 0.0% | % double-modified (SOCS6-EloBC (SBC6); 0 min): 0.0% | % modified (single adduct) (SOCS6-EloBC (SBC6); 0 min): 0.0% | % double-modified (SOCS6-EloBC (SBC6); 120 min): 2.6% | % modified (single adduct) (SOCS6-EloBC (SBC6); 120 min): 18% and 18.3%
